# In ChEMBL document CHEMBL1154336, “The discovery and optimisation of benzazepine sulfonamide and sulfones as potent agonists of the motilin receptor” (Bioorg Med Chem Lett, 2009):
# Key:
# Motilin receptor = Motilin receptor (Homo sapiens, UniProt O43193); assay: Agonist activity at human recombinant motilin receptor expressed in CHO cells by FLIPR assay; format: functional, cell-based
# [1] = target: T1, Growth hormone secretagogue receptor type 1 (Homo sapiens, UniProt Q92847); assay: Agonist activity at human ghrelin receptor; format: functional
# T1 sequence (Q92847 whole entry): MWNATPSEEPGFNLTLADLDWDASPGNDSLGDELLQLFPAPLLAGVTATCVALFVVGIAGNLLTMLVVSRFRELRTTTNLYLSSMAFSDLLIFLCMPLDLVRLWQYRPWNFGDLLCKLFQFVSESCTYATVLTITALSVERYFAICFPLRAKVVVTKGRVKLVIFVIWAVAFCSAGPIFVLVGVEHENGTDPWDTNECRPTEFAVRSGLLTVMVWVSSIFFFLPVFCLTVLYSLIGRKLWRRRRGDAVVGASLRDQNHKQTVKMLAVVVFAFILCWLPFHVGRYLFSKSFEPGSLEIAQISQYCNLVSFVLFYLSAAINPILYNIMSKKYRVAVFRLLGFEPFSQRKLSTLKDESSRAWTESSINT
# Cytochrome P450 2D6 = Cytochrome P450 2D6 (Homo sapiens, UniProt P10635); assay: Inhibition of human recombinant CYP2D6; format: ADME
# Cytochrome P450 2D6, sequence (P10635 whole entry): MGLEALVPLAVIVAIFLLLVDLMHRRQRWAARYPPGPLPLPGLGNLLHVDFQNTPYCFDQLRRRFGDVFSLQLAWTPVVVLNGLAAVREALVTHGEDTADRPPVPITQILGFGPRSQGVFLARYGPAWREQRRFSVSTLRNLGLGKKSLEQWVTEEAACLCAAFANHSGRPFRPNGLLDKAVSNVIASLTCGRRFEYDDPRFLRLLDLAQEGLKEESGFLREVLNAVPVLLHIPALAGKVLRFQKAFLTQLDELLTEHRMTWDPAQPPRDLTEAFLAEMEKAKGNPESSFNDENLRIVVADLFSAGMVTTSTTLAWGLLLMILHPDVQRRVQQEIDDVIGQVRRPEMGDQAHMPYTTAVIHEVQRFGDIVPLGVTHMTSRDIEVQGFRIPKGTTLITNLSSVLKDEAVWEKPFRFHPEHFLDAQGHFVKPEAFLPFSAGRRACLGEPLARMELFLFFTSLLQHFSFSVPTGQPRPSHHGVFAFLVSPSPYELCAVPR
# [2] = target: T1, Growth hormone secretagogue receptor type 1; assay: Intrinsic activity at human ghrelin receptor relative to ghrelin
# Liver microsomes [3] = assay: Intrinsic clearance in rat liver microsomes after 30 mins; format: ADME, Microsome; conditions: 0.5 h
# Liver microsomes [4] = assay: Intrinsic clearance in human liver microsomes after 30 mins; format: ADME, Microsome; conditions: 0.5 h
# Stomach = assay: Increase in electric field stimulated contractile response in New Zealand White rabbit gastric antrum at 1 uM after 60 mins; format: functional; conditions: Oryctolagus cuniculus, 1 h
# D(3) dopamine receptor = D(3) dopamine receptor (Homo sapiens, UniProt P35462); assay: Agonist activity at dopamine D3 receptor; format: functional
# D(3) dopamine receptor, sequence (P35462 whole entry): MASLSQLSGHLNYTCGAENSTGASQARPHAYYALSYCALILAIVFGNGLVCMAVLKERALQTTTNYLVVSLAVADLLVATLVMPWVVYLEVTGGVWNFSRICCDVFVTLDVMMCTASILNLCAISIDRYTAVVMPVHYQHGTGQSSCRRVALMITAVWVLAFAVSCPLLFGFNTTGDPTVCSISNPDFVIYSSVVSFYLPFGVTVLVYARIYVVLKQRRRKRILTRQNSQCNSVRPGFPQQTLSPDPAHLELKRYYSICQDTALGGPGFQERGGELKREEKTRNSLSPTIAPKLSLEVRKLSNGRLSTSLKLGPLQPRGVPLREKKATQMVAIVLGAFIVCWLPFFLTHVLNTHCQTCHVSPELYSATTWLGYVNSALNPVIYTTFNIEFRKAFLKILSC
# [5] = target: 5-hydroxytryptamine receptor 6 (Homo sapiens, UniProt P50406); assay: Agonist activity at 5HT6 receptor; format: functional
# 5-hydroxytryptamine receptor 6, sequence (P50406 whole entry): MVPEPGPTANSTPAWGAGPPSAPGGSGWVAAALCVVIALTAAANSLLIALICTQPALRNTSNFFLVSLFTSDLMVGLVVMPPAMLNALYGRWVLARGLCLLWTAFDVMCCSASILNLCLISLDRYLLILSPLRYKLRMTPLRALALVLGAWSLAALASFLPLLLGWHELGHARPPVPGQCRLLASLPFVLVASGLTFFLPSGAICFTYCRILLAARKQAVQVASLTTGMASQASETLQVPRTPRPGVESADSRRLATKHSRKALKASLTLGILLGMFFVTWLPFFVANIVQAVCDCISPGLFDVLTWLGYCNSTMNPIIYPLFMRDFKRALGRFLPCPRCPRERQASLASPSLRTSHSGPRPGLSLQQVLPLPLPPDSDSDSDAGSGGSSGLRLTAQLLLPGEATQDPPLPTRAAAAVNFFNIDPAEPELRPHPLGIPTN
# D(2) dopamine receptor = D(2) dopamine receptor (Homo sapiens, UniProt P14416); assay: Agonist activity at dopamine D2 receptor; format: functional
# D(2) dopamine receptor, sequence (P14416 whole entry): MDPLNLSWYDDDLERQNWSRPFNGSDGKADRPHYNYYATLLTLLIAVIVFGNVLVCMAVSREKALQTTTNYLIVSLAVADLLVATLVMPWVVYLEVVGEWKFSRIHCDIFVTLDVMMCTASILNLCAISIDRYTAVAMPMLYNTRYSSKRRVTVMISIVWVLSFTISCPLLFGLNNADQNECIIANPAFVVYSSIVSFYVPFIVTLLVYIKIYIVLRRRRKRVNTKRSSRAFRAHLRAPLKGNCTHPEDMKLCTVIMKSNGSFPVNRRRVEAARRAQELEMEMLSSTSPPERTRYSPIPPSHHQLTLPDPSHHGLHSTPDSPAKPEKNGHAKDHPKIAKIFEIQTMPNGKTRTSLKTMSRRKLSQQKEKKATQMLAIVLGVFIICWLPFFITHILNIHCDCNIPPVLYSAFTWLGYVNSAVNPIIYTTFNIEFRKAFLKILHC
# Cytochrome P450 2C9 = Cytochrome P450 2C9 (Homo sapiens, UniProt P11712); assay: Inhibition of human recombinant CYP2C9; format: ADME
# Cytochrome P450 2C9, sequence (P11712 whole entry): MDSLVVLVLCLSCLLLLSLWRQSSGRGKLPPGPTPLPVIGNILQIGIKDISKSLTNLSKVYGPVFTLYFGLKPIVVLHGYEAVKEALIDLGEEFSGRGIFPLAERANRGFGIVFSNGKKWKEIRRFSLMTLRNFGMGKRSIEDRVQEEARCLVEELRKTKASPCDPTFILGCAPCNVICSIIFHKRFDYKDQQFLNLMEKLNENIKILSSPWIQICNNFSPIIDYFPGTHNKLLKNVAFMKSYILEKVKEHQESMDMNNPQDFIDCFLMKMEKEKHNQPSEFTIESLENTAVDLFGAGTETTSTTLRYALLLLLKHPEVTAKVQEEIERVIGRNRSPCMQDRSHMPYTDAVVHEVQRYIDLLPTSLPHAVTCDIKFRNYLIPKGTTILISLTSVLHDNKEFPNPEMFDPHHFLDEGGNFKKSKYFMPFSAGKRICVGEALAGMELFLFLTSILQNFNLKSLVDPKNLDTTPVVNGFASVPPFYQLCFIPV
# Cytochrome P450 3A4 [6] = target: T2, Cytochrome P450 3A4 (Homo sapiens, UniProt P08684); assay: Inhibition of human recombinant CYP3A4 using diethoxyfluorescein as substrate; format: ADME
# T2 sequence (P08684 whole entry): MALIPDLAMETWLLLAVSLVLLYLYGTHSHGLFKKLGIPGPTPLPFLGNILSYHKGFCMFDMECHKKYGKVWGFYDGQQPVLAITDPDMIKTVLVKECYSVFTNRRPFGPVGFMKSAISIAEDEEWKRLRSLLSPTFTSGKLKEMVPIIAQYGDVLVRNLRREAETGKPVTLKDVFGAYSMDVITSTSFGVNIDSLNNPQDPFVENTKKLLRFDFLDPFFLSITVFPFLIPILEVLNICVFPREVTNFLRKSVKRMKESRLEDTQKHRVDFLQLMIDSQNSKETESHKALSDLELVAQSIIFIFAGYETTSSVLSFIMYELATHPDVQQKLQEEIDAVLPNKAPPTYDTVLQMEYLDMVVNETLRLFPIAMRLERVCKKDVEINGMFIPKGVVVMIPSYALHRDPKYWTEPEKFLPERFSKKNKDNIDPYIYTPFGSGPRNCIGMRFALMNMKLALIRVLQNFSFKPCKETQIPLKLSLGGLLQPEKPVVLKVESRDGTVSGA
# Cytochrome P450 3A4 [7] = target: T2, Cytochrome P450 3A4; assay: Inhibition of human recombinant CYP3A4 using 7-{3-(4-phenylpiperazin-1-ylmethyl)benzyl}resorufin as substrate; format: ADME
# Motilin receptor, sequence (O43193 whole entry): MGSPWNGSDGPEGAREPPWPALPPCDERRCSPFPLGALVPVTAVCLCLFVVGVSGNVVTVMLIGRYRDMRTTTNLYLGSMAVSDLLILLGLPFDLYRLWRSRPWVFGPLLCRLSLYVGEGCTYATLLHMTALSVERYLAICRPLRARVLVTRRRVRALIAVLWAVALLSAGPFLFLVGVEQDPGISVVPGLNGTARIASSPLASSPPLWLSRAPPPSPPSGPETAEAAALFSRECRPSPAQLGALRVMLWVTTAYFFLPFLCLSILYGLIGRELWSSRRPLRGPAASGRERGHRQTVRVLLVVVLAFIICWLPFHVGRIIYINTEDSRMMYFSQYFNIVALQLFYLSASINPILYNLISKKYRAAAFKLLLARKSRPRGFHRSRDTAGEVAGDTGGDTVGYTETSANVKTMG
Structure (SMILES),EC50 (Motilin receptor) [nM],EC50 [1] [nM],also measured
CCCCc1ccc(S(=O)(=O)N(C)c2ccc3c(c2)CCNCC3)cc1,2510,,
CC(C)Oc1ccc(S(=O)(=O)Cc2ccc3c(c2)CCNCC3)cn1,158,> 1000,IC50 (Cytochrome P450 2D6): 1600 nM
CCCCc1ccc(S(=O)(=O)Nc2ccc3c(c2)CCN(C2CCN(C(C)=O)CC2)CC3)cc1,> 2510,,
O=S(=O)(Cc1ccccc1)Nc1ccc2c(c1)CCN(Cc1ccn[nH]1)CC2,2510,> 1000,
CCCCc1ccc(S(=O)(=O)Nc2ccc3c(c2)CCN(Cc2[nH]cnc2C)CC3)cc1,3.16,3.98,Intrinsic activity [2]: 0.6
CCCCc1ccc(S(=O)(=O)Nc2ccc3c(c2)CCN(C2CCN(C)CC2)CC3)cc1,> 12600,,
O=S(=O)(Cc1ccc2c(c1)CCNCC2)c1ccccc1,> 12600,> 10000,
CC(C)COc1ccc(S(=O)(=O)Cc2ccc3c(c2)CCNCC3)cn1,39.8,> 1000,
O=S(=O)(Cc1ccc2c(c1)CCNCC2)c1ccc(Nc2ccc(F)cc2)nc1,20,> 1000,CL (Liver microsomes [3]): < 0.5 mL/min/g; CL (Liver microsomes [4]): < 1 mL/min/g; IC50 (Cytochrome P450 2D6): 300 nM
O=S(=O)(Nc1ccc2c(c1)CCN(Cc1cc[nH]n1)CC2)c1ccc(Cl)cc1,794,> 10000,
CC(C)S(=O)(=O)Nc1ccc2c(c1)CCN(Cc1ccn[nH]1)CC2,> 12600,,IC50 (Cytochrome P450 2D6): 16000 nM
CN(C(=O)c1ccc(N2CCOCC2)nc1)c1ccc2c(c1)CCNCC2,> 12600,,
CCCCc1ccc(S(=O)(=O)Cc2ccc3c(c2)CCNCC3)cc1,126,,
CCCCc1ccc(S(=O)(=O)Nc2ccc3c(c2)CCN(Cc2ccc(NC(C)=O)s2)CC3)cc1,50.1,> 1000,
O=S(=O)(Cc1ccc2c(c1)CCNCC2)c1ccc(-c2ccc(F)c(F)c2)cc1,25.1,> 1000,CL (Liver microsomes [3]): 1.1 mL/min/g; CL (Liver microsomes [4]): 1 mL/min/g; IC50 (Cytochrome P450 2D6): 100 nM
CCCCc1ccc(S(=O)(=O)Nc2ccc3c(c2)CCN(C2CCCC2)CC3)cc1,200,> 1000,
N#Cc1ccc(-c2ccc(S(=O)(=O)Cc3ccc4c(c3)CCNCC4)cn2)cc1,158,> 1000,
CN(Cc1ccc2c(c1)CCNCC2)C(=O)c1ccc(N2CCOCC2)nc1,> 12600,,
O=S(=O)(Cc1ccc2c(c1)CCNCC2)c1ccc(-c2ccc(F)cc2)nc1,5.01,> 1000,CL (Liver microsomes [3]): < 0.5 mL/min/g; CL (Liver microsomes [4]): < 1 mL/min/g; Emax at 1 µM (Stomach): 54%; IC50 (Cytochrome P450 2D6): 600 nM
O=C(Nc1ccc(F)cc1)c1ccc(S(=O)(=O)Cc2ccc3c(c2)CCNCC3)cn1,2000,,
CCCCc1ccc(S(=O)(=O)Nc2ccc3c(c2)CCN(Cc2cccs2)CC3)cc1,2510,> 1000,
CCCCc1ccc(S(=O)(=O)Nc2ccc3c(c2)CCN(Cc2cc[nH]n2)CC3)cc1,,,Intrinsic activity [2]: 0.7; Emax at 1 µM (Stomach): 47%
CCCCc1ccc(S(=O)(=O)Nc2ccc3c(c2)CCNCC3)cc1,1580,,
CCCCc1ccc(S(=O)(=O)Nc2ccc3c(c2)CCN(Cc2cccc(NC(C)=O)c2)CC3)cc1,501,> 10000,

Structure (SMILES),EC50 (Motilin receptor) [nM],EC50 [1] [nM],also measured
CCCCc1ccc(S(=O)(=O)Nc2ccc3c(c2)CCN(Cc2cncn2C)CC3)cc1,3160,,
CCCCc1ccc(S(=O)(=O)Nc2ccc3c(c2)CCN(CC2CCOC2)CC3)cc1 (centres undefined),2000,> 1000,
O=S(=O)(Cc1ccc2c(c1)CCNCC2)c1ccc(-c2ccc(Cl)cc2)cc1,20,> 10000,CL (Liver microsomes [3]): < 0.5 mL/min/g; CL (Liver microsomes [4]): < 1 mL/min/g; IC50 (Cytochrome P450 2D6): < 100 nM
Cc1ccc(S(=O)(=O)Nc2ccc3c(c2)CCN(Cc2ccn[nH]2)CC3)cc1Cl,39.8,79.4,Ki (D(3) dopamine receptor): 100 nM; Ki [5]: 6.31 nM; Ki (D(2) dopamine receptor): 398 nM
O=S(=O)(Cc1ccc2c(c1)CCNCC2)c1ccc(-c2ccc(Cl)cc2)nc1,7.94,> 1000,CL (Liver microsomes [3]): < 1 mL/min/g; CL (Liver microsomes [4]): < 1 mL/min/g; IC50 (Cytochrome P450 2D6): < 100 nM
O=C(Nc1ccc(N2CCOCC2)nc1)c1ccc2c(c1)CCNCC2,> 12600,,
CC(C)(C)c1ccc(S(=O)(=O)Cc2ccc3c(c2)CCNCC3)cc1,3160,> 10000,
CCCCc1ccc(S(=O)(=O)Nc2ccc3c(c2)CCN(Cc2cnc(C)[nH]2)CC3)cc1,63.1,20,Intrinsic activity [2]: 0.5
O=S(=O)(Cc1ccc2c(c1)CCNCC2)c1ccc2ccccc2c1,1260,> 10000,
O=S(=O)(Nc1ccc(N2CCOCC2)nc1)c1ccc2c(c1)CCNCC2,2510,,
CCCCc1ccc(S(=O)(=O)Nc2ccc3c(c2)CCN(Cc2cnc[nH]2)CC3)cc1,7.94,3.98,Intrinsic activity [2]: 0.4
N#Cc1ccc(S(=O)(=O)Nc2ccc3c(c2)CCN(Cc2cc[nH]n2)CC3)cc1,7940,,IC50 (Cytochrome P450 2D6): 7900 nM; IC50 (Cytochrome P450 2C9): 2500 nM
CC1(C)CCc2cc(S(=O)(=O)Nc3ccc4c(c3)CCN(Cc3cc[nH]n3)CC4)ccc2O1,5.01,631,IC50 (Cytochrome P450 2D6): 500 nM
Cc1ccc(S(=O)(=O)Nc2ccc3c(c2)CCN(Cc2cc[nH]n2)CC3)cc1Cl,,,Intrinsic activity [2]: 0.7
O=S(=O)(Nc1ccc2c(c1)CCN(Cc1cc[nH]n1)CC2)c1ccc(-c2ccccc2)cc1,10,1580,IC50 (Cytochrome P450 3A4 [6]): < 100 nM; Ki (D(3) dopamine receptor): 31.6 nM; Intrinsic activity [2]: 0.7; Ki [5]: 126 nM; Ki (D(2) dopamine receptor): 631 nM; IC50 (Cytochrome P450 2D6): < 100 nM; IC50 (Cytochrome P450 3A4 [7]): < 100 nM
O=C(Nc1ccc2c(c1)CCNCC2)c1ccc(N2CCOCC2)nc1,> 12600,,
O=S(=O)(Cc1ccc2c(c1)CCNCC2)c1ccc(N2CCCCC2)nc1,63.1,> 1000,IC50 (Cytochrome P450 2D6): 1100 nM
O=S(=O)(Nc1ccc2c(c1)CCNCC2)c1ccc(N2CCOCC2)nc1,1580,,
O=S(=O)(Cc1ccc2c(c1)CCNCC2)c1ccc(Oc2ccc(F)cc2)nc1,501,> 1000,IC50 (Cytochrome P450 2D6): 1700 nM
CC(C)Oc1ccc(S(=O)(=O)Nc2ccc3c(c2)CCN(Cc2cc[nH]n2)CC3)cc1,3.98,158,Ki (D(3) dopamine receptor): 20 nM; Intrinsic activity [2]: 0.6; Ki [5]: 200 nM; Ki (D(2) dopamine receptor): 631 nM; IC50 (Cytochrome P450 2D6): 1300 nM
O=S(=O)(Cc1ccc2c(c1)CCNCC2)c1ccc(N2CCOCC2)nc1,501,> 1000,CL (Liver microsomes [3]): < 1 mL/min/g; CL (Liver microsomes [4]): < 0.5 mL/min/g; IC50 (Cytochrome P450 2D6): 16000 nM
CN1CCOc2cc(S(=O)(=O)Nc3ccc4c(c3)CCN(Cc3cc[nH]n3)CC4)ccc21,31.6,> 10000,Ki (D(3) dopamine receptor): 631 nM; Ki [5]: 15.8 nM; Ki (D(2) dopamine receptor): > 1000 nM
CCCCc1ccc(S(=O)(=O)Nc2ccc3c(c2)CCN(Cc2ccccc2)CC3)cc1,> 3160,,
